Results taken from publication PMC9718554, “Discovery of a fragment hit compound targeting D-Ala:D-Ala ligase of bacterial peptidoglycan biosynthesis” (Journal of Enzyme Inhibition and Medicinal Chemistry, 2022).
Read-outs that look alike come from different tables or passages of the source.

Biological target: T1, E. coli DdlB enzyme (D-alanine:D-alanine ligase) (Escherichia coli, UniProt P07862)
T1 construct: made in house; host or cells: E. coli
Assay: biochemical
Settings: for remaining activity at 5000 µM: at 5 mM; for remaining activity at 5000 µM / remaining activity at 500 µM / remaining activity at 1000 µM / remaining activity at 1500 µM: read-out: DdlB inhibition, RA (Residual Activity); for remaining activity at 500 µM: at 0.5 mM; for remaining activity at 1000 µM: at 1 mM; for remaining activity at 1500 µM: at 1.5 mM; for remaining activity at 2100 µM: tested concentration 2.1 mM; for remaining activity at 2200 µM: tested concentration 2.2 mM; for remaining activity at 2300 µM: tested concentration 2.3 mM
Procedure: The fragment library was assayed in a DdlB inhibition assay, where fragments were tested for their ability to inhibit the D-Ala-adding activity of DdlB ligase. The orthophosphate formed during the enzymatic reaction was measured spectrophotometrically using malachite green reagent.
A recombinant E. coli DdlB enzyme (D-alanine:D-alanine ligase) was expressed in E. coli[11]. […] The final DMSO concentration was 5%. […] All experiments were performed in duplicates. […] IC50 values were determined by measuring the residual activities in quadruplicate at seven different compound concentrations and calculated using in GraphPad Prism (GraphPad Software, San Diego, CA, USA).

[1] = residual activity, read-out: DdlB RA

Which remaining activity at 1900 µM (residual activity, tested concentration 1.9 mM, read-out: DdlB RA) does the source give for CN1CCC2(CC1)CN(C1CCC1)Cc1ccccc1O2 [CM3852-0302] here?
The remaining activity at 1900 µM was 86%.

With N#Cc1ccc(O)cc1F [Compound 00CS-0032] as the compound, how does the remaining activity at 3600 µM (residual activity of DdlB, fragment library screening, tested concentration 3.6 mM, read-out: DdlB RA) read?
The remaining activity at 3600 µM was 94%.

O=C(O)c1cnn2c(-c3ccccc3)ccnc12 [Compound 9, 7-Phenylpyrazolo[1,5-a]pyrimidine-3-carboxylic acid] was tested. Which remaining activity at 5000 µM did it give?
The remaining activity at 5000 µM was 90%.

How did the remaining activity at 500 µM turn out when Cc1ccc(-c2ccnc3c(C(=O)O)cnn23)cc1 [Compound 10, 7-(p-Tolyl)pyrazolo[1,5-a]pyrimidine-3-carboxylic acid] was run?
The remaining activity at 500 µM was 101%.

How did the remaining activity at 500 µM turn out when Cc1ccc(-c2ccnc3c(C(=O)O)cnn23)cc1C [Compound 11, 7–(3,4-Dimethylphenyl)pyrazolo[1,5-a]pyrimidine-3-carboxylic acid] was run?
Its remaining activity at 500 µM is 100%.

With O=C(O)c1cnn2c(-c3ccc(Cl)cc3)ccnc12 [Compound 12, 7–(4-Chlorophenyl)pyrazolo[1,5-a]pyrimidine-3-carboxylic acid] as the compound, how does the remaining activity at 1000 µM read?
Its remaining activity at 1000 µM is 90%.

And the remaining activity at 5000 µM?
Its remaining activity at 5000 µM is 0%.

Which remaining activity at 500 µM does the source give for O=C(O)c1cnn2c(-c3cccc([N+](=O)[O-])c3)ccnc12 [Compound 13, 7–(3-Nitrophenyl)pyrazolo[1,5-a]pyrimidine-3-carboxylic acid] here?
The remaining activity at 500 µM was 89%.

With O=C(O)c1cnn2c(-c3ccc4c(c3)OCO4)ccnc12 [Compound 14, 7-(Benzo[d][1,3]dioxol-5-yl)pyrazolo[1,5-a]pyrimidine-3-carboxylic acid] as the compound, how does the remaining activity at 500 µM read?
Its remaining activity at 500 µM is 100%.

With O=C(O)c1cnn2c(-c3cccs3)ccnc12 [Compound 15, 7-(Thiophen-2-yl)pyrazolo[1,5-a]pyrimidine-3-carboxylic acid] as the compound, how does the remaining activity at 1000 µM read?
Its remaining activity at 1000 µM is 96%.

Which remaining activity at 500 µM does the source give for O=C(O)c1cnn2c(-c3ccsc3)ccnc12 [Compound 16, 7-(Thiophen-3-yl)pyrazolo[1,5-a]pyrimidine-3-carboxylic acid] here?
Its remaining activity at 500 µM is 89%.

Which results are given for Cc1nn(C)cc1-c1ccnc2c(C(=O)O)cnn12 [Compound 17, 7–(1,3-Dimethyl-1H-pyrazol-4-yl)pyrazolo[1,5-a]pyrimidine-3-carboxylic acid]?
DdlB dose-response curve shape: Nonsigmoidal curve; remaining activity at 5000 µM: 26%

O=C(O)c1cc2nccc(-c3cccs3)n2n1 [Compound 18, 7-(Thiophen-2-yl)pyrazolo[1,5-a]pyrimidine-2-carboxylic acid] was tested. Which remaining activity at 1500 µM did it give?
Its remaining activity at 1500 µM is 87%.

And the remaining activity at 5000 µM?
The remaining activity at 5000 µM was 69%.

For O=C(O)c1cc2nccc(-c3ccccc3)n2n1 [Compound 19, 7-Phenylpyrazolo[1,5-a]pyrimidine-2-carboxylic acid], which remaining activity at 1500 µM is on record?
The remaining activity at 1500 µM was 90%.

And the remaining activity at 5000 µM?
The remaining activity at 5000 µM was 50%.

With CCOC(=O)c1cnn2c(-c3ccc(C)c(C)c3)ccnc12 [Compound 20, Ethyl 7–(3,4-dimethylphenyl)pyrazolo[1,5-a]pyrimidine-3-carboxylate] as the compound, how does the remaining activity at 500 µM read?
The remaining activity at 500 µM was 100%.

For NC(=O)c1cnn2c(-c3ccccc3)ccnc12 [Compound 21, 7-Phenylpyrazolo[1,5-a]pyrimidine-3-carboxamide], which remaining activity at 500 µM is on record?
Its remaining activity at 500 µM is 96%.

With Cc1cccc(-c2ccnc3c(C#N)cnn23)c1 [Compound 22, 7-(m-Tolyl)pyrazolo[1,5-a]pyrimidine-3-carbonitrile] as the compound, how does the remaining activity at 500 µM read?
The remaining activity at 500 µM was 100%.

N/C(=N\O)c1cnn2c(-c3cccc(C(F)(F)F)c3)ccnc12 [Compound 23, (Z)-N'-Hydroxy-7–(3-(trifluoromethyl)phenyl)pyrazolo[1,5-a]pyrimidine-3-carboximidamide] was tested. Which remaining activity at 500 µM did it give?
Its remaining activity at 500 µM is 94%.

How did the remaining activity at 3300 µM (tested concentration 3.3 mM, read-out: DdlB RA) turn out when CCc1ccc(B(O)O)cc1 [Compound 0054-0178] was run?
The remaining activity at 3300 µM was 104%.

How did the remaining activity at 2600 µM (tested concentration 2.6 mM, read-out: DdlB RA) turn out when O=S(=O)(O)CCN1CCOCC1 [Compound 0083-0027] was run?
Its remaining activity at 2600 µM is 91%.

How did the remaining activity at 2100 µM [1] turn out when O=C(Nc1ccccc1C(=O)O)c1ccccc1 [Compound 0090-0118] was run?
The remaining activity at 2100 µM was 101%.

For CCOC(=O)c1ccccc1S(N)(=O)=O [Compound 0147-0017], which remaining activity at 2200 µM (read-out: DdlB RA) is on record?
The remaining activity at 2200 µM was 99%.

With O=S(=O)(O)CCOc1ccccc1 [Compound 0165-0458] as the compound, how does the remaining activity at 2500 µM (tested concentration 2.5 mM, read-out: DdlB RA) read?
Its remaining activity at 2500 µM is 100%.

With O=[N+]([O-])c1cc(S(=O)(=O)O)ccc1Cl [Compound 0195-0016] as the compound, how does the remaining activity at 2100 µM (read-out: DdlB RA) read?
Its remaining activity at 2100 µM is 100%.

How did the remaining activity at 4300 µM (tested concentration 4.3 mM, read-out: DdlB RA) turn out when CC1CCOB(O)O1 (stereo not drawn) [Compound 0199-0113] was run?
Its remaining activity at 4300 µM is 89%.

Which remaining activity at 1800 µM (residual activity, tested concentration 1.8 mM, read-out: DdlB RA) does the source give for O=C(Nc1ccccc1C(=O)O)c1ccccc1Cl [Compound 0342-0148] here?
The remaining activity at 1800 µM was 111%.

Which remaining activity at 3200 µM (tested concentration 3.2 mM, read-out: DdlB RA) does the source give for NS(=O)(=O)c1ccccc1 [Compound 0402-0167] here?
Its remaining activity at 3200 µM is 96%.

For CC(=O)Nc1ccc(S(N)(=O)=O)cc1 [Compound 0405-0094], which remaining activity at 2300 µM (read-out: DdlB RA) is on record?
Its remaining activity at 2300 µM is 87%.

Which remaining activity at 2100 µM (read-out: DdlB RA) does the source give for Nc1c(Cl)cc(S(N)(=O)=O)cc1Cl [Compound 0772-0030] here?
Its remaining activity at 2100 µM is 93%.

For Cc1ccc([N+](=O)[O-])cc1S(=O)(=O)O [Compound 0804-0047], which remaining activity at 2300 µM (read-out: DdlB RA) is on record?
Its remaining activity at 2300 µM is 93%.

With CC(C)(C)NS(=O)(=O)c1ccccc1 [Compound 0896-4384] as the compound, how does the remaining activity at 2800 µM (tested concentration 2.8 mM, read-out: DdlB RA) read?
Its remaining activity at 2800 µM is 95%.

How did the remaining activity at 2100 µM [1] turn out when O=C(O)c1ccccc1NC(=O)C(F)(F)F [Compound 0931-0537] was run?
Its remaining activity at 2100 µM is 104%.

How did the remaining activity at 2200 µM (read-out: DdlB RA) turn out when Nc1cccc2cccc(S(=O)(=O)O)c12 [Compound 1091-0114] was run?
Its remaining activity at 2200 µM is 81%.
